Data: ChEMBL document CHEMBL1201862, “PubChem BioAssay data set” (2004)
Structures can show the parent of a compound that is named as a salt. Activity calls are given as the source filed them. Cut-off read from the data, not from the text of the source, for most assays here: actives have a measured EC50 and inactives only a lower limit.

Columns and labels:
[1] = Luminescence Cell-Based Dose Response HTS to Identify Inhibitors of 5'UTR Stem-Loop Driven Prion Protein mRNA Translation in H4 Neuroglioblastoma Cells. [Related pubchem assays: 1827 (Project Summary), 1813 (Primary HTS)]; assay type: functional
[2] = luciferase reporter signal suppression in cells – H4 neuroglioma cells, luminescence, dose response (AID 1990); assay type: functional, cell-based
[3] = target: T1, Heat shock factor protein 1 (Mus musculus, UniProt P38532); test: enhancement of HSF1-driven luciferase signal – cell-based, NIH3T3, luminescence, dose retest, confirmation (AID 435004); assay type: functional;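 note: stress induced by proteasome inhibitor MG132 added 30 min after compound; luciferase reporter driven by HSF1 response element in NIH3T3 cells; actives raise luminescence as potentiators of the MG132 stress response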
T1 sequence (P38532 whole entry): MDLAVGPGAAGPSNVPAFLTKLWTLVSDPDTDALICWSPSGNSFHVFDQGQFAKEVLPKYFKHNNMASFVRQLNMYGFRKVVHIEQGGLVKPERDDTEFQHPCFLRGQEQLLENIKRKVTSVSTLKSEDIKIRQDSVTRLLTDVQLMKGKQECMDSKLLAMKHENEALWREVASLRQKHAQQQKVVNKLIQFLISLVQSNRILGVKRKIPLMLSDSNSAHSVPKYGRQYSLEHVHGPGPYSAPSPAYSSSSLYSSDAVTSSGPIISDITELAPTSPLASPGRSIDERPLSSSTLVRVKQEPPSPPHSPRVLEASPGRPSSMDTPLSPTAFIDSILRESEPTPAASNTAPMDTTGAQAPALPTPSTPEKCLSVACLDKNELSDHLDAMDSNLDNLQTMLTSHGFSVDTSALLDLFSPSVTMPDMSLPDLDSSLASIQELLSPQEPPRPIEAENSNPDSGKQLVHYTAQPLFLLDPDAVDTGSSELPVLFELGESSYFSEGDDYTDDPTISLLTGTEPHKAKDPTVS

[4] = alpha-synuclein stem-loop luciferase translation blockers – H4 neuroglioma cells, luminescence, confirmation (AID 1988); assay type: functional, cell-based
Streptokinase A = target: T2, Streptokinase A (Streptococcus pyogenes serotype M1, UniProt P10520); test: viability-normalized secreted streptokinase activity reduction – plasminogen activation absorbance, OD405, dose response (AID 1914); assay type: functional, Streptococcus pyogenes M1 GAS;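 note: secreted streptokinase activity via plasminogen activation per viability signal from cell pellet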
T2 sequence (P10520 whole entry): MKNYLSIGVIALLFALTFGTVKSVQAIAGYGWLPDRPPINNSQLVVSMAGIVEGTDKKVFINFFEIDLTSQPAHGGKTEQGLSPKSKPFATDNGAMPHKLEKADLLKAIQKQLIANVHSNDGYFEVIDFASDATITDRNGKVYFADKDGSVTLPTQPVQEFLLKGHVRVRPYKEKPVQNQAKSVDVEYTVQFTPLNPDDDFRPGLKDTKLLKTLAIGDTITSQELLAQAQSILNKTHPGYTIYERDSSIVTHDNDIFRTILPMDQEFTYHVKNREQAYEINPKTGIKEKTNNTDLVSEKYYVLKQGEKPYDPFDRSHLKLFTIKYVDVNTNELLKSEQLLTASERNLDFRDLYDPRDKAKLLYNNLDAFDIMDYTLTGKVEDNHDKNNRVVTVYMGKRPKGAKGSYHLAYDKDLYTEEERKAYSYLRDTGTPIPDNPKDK

Streptococcus = test: GAS UMAA2166 growth inhibition – luminescence, BacTiterGlo, counter-screen for streptokinase expression inhibitor project, dose response (AID 1915); assay type: functional, organism-based;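 note: potency for reduction of bacterial viability or growth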
[5] = tested on: Streptococcus sp. 'group A'; test: Streptococcus pyogenes SK(-)GAS viability under kanamycin – luminescence, BacTiterGlo, confirmation, counter-screen for streptokinase expression inhibitor project, dose response (AID 1900); assay type: functional, organism-based
[6] = viability of uninfected HEp-2 cells – cell-based, HTS, cytotoxicity control for RSV inhibitor project, dose response (AID 2410); assay type: functional; details: human respiratory syncytial virus
[7] = target: T3, Corticotropin-releasing factor receptor 2/Corticotropin-releasing factor-binding protein (Homo sapiens, UniProt P24387+Q13324); test: Dose Response confirmation of uHTS hits for small molecule antagonists of the CRF-binding protein and CRF-R2 receptor complex.; assay type: functional; details: read-out: IC50_Mean
T3 sequence (Q13324 whole entry): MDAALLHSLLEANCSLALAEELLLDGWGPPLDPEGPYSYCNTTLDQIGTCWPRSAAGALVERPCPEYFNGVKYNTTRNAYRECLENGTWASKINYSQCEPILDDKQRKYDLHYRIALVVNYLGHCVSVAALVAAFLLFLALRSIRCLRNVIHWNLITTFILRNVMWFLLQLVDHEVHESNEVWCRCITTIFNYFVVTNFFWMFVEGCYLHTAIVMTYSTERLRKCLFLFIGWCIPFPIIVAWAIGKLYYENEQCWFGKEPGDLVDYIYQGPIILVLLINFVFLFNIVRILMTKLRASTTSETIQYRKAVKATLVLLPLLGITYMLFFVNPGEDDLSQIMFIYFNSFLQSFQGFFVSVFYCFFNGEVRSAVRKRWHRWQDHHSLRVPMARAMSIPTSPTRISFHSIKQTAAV
T3 sequence (P24387 whole entry): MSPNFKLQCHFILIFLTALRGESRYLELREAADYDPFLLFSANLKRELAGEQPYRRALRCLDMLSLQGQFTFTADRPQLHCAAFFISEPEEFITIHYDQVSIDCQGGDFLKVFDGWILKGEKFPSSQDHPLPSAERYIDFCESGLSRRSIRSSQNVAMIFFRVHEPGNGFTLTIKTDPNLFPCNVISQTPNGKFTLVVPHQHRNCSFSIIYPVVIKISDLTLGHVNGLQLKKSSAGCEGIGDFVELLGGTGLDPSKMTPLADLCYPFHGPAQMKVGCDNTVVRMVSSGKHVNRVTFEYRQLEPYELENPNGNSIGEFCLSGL

[8] = target: T3, Corticotropin-releasing factor receptor 2/Corticotropin-releasing factor-binding protein; test: activators of CRF receptor 2 with binding protein – uHTS hits, confirmation (AID 602473); assay type: functional; details: read-out: EC50_Mean
[9] = target: FAD-linked sulfhydryl oxidase ALR (Homo sapiens, UniProt P55789); test: ALR-catalysed DTT oxidation blockers – biochemical, H2O2 detection, luminescence, cherry-pick, dose response (AID 493248)
[10] = target: T4, Zinc finger protein mex-5 (Caenorhabditis elegans, UniProt Q9XUB2); test: potency of MEX-5 RNA-binding blockers – biochemical, C. elegans, fluorescence polarization, dose response (AID 1960)
T4 sequence (Q9XUB2 whole entry): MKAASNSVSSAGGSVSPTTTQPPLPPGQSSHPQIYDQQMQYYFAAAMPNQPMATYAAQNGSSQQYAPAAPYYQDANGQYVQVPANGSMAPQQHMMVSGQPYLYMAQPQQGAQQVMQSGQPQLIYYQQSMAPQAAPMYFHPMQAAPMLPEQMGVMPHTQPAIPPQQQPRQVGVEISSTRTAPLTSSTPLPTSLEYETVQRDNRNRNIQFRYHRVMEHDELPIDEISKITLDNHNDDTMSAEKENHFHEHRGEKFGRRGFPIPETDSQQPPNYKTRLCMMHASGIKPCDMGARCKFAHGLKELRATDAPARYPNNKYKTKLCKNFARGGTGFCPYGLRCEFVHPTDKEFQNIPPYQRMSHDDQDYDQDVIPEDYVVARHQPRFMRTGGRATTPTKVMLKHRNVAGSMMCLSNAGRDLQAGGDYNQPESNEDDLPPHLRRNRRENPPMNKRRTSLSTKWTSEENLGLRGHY

[11] = target: T5, RNA-binding protein pos-1 (Caenorhabditis elegans, UniProt G5EF15); test: disruptors of C. elegans POS-1 RNA interaction – biochemical, fluorescence polarization, dose response (AID 1964);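 note: purified POS-1 fused to maltose binding protein made in E. coli; potency of compounds blocking POS-1 binding to fluorescent RNA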
T5 sequence (G5EF15 whole entry): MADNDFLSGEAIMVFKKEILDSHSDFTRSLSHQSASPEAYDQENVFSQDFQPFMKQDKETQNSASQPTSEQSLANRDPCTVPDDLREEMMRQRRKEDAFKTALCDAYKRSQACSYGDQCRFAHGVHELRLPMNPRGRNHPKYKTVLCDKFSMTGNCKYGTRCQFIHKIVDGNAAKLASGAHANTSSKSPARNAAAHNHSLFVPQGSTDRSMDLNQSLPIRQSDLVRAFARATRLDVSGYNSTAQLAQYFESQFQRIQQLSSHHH

[12] = Luminescence Cell-Based Dose Retest to Confirm Inhibitors of Cancer Stem Cells. [Related pubchem assays (depositor defined):AID2717, AID2721]; assay type: functional; details: Homo sapiens
[13] = fluconazole-exposed Candida albicans growth modulators – fluorescence, retest, confirmation (AID 2467); assay type: functional, cell-based
[14] = NIH-3T3 fibroblast cytotoxicity, dose response, cytotoxicity control, cell-based, fluorescence, Alamar Blue, secondary assay (AID 2327); assay type: functional;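 note: NIH-3T3 mouse fibroblasts cultured with fluconazole at 8 µg/mL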

FAD-linked sulfhydryl oxidase ALR, sequence (P55789 whole entry): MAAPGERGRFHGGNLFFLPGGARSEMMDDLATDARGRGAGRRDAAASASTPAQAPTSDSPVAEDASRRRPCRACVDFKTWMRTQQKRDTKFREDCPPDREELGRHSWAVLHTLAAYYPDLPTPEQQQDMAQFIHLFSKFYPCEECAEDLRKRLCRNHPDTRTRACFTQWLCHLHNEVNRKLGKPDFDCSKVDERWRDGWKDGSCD

## CCOC(=O)c1c(NC(=O)c2nn(CC)cc2Br)c(C#N)nn1-c1ccccc1
[1]
  EC50: > 120 µM (not active)
[2]
  EC50: 22.5 µM (active)
[3]
  EC50: > 260 µM (inactive)
[4]
  EC50: > 120 µM (not active)

## CCc1nc(SCC(=O)Nc2ccccc2OC)c2c(C)c(C)sc2n1
Streptokinase A
  EC50: > 150 µM (not active)
Streptococcus
  EC50: > 150 µM (not active)
[5]
  EC50: 8.64 µM (active)
[6]
  CC50: 26 µM (active)

## COc1ccc(CC(=O)ONC(=N)c2cccc([N+](=O)[O-])c2)cc1
[7]
  IC50: > 47.1 µM (inactive)
[8]
  EC50: > 53 µM (inactive)

## CCOC(=O)c1c(C)[nH]c(C(=O)COC(=O)c2ccccc2NC(=O)c2ccco2)c1C
[6]
  CC50: > 50 µM (active)

## O=c1c2c(O)cc(-c3ccccc3)nc2[nH]n1-c1ccccc1
[9]
  AC50: 3.54 µM (active)

## COCCCNC(CC(=O)Nc1cc(C)cc(C)c1)C(=O)O (stereo not given)
[10]
  EC50: > 300 µM (not active)
[11]
  EC50: > 300 µM (not active)

## COc1ccc2sc(-c3ccc(SC)cc3)c(C#CCO)c2c1
[12]
  AC50: 9.22 µM (active)

## COc1cc(/C=C/c2noc(-c3ccccc3O)n2)ccc1OC(C)=O
[12]
  AC50: 3.44 µM (active)

## C=CCn1c(S)nnc1Cc1cccc2ccccc12
[9]
  AC50: 23.3 µM (active)

## CC1=CC2=C(OC1N(C)C)c1cccc3cccc(c13)C2=O (stereo not given)
[13]
  EC50: > 38 µM (not active)
[3]
  EC50: > 260 µM (inactive)
[14]
  EC50: > 150 µM (inactive)

## Cn1ccc(/C=N/NC2=NC(=O)CS2)n1
[6]
  CC50: 24.5 µM (active)

## C/C(=N\NC(=O)C1CC1)c1ccc(OC(F)F)cc1OC(F)F
[6]
  CC50: 30.8 µM (active)

## NC(=O)c1ccc(NC(=O)COC(=O)c2c3c(nc4ccccc24)/C(=C\c2cccs2)CCC3)cc1
[12]
  AC50: 10.4 µM (active)

## COc1c2c(c(OC)c3ccccc13)[C@@]1(OC2)O[C@H](CCO)C[C@H](O)[C@H]1O
[7]
  IC50: > 47.1 µM (inactive)
[8]
  EC50: > 53 µM (inactive)

## Cc1ccccc1-n1c(-c2ccc(Cl)cc2)cnc1SCC(=O)NC1CCS(=O)(=O)C1 (stereo not given)
[3]
  EC50: > 260 µM (inactive)

## CCN(CC)c1ccc(CN(C(=O)c2cc(OC)c(OC)c(OC)c2)C2CCS(=O)(=O)C2)cc1 (stereo not given)
[9]
  AC50: 9.07 µM (active)

## CCN(CCNC(=O)CN1CCN(Cc2ccc(Cl)cc2)C1=O)c1ccccc1
[3]
  EC50: > 260 µM (inactive)

## CCOc1ccc(S(=O)(=O)Nc2cccnc2)cc1
[7]
  IC50: > 47.1 µM (inactive)
[8]
  EC50: > 53 µM (inactive)

## CCCc1n[nH]c2c1C(c1cc(OC)ccc1F)C(C#N)=C(N)O2 (stereo not given)
[3]
  EC50: > 260 µM (inactive)

## Cc1occc1C(=O)N/N=C/C(Br)=C\c1ccccc1
[6]
  CC50: 22.4 µM (active)

## CCCCN(C)C(=O)C1CCC(CNS(=O)(=O)c2ccc3c(c2)CC(C)N3C(=O)C2CC2)CC1 (stereo not given)
[3]
  EC50: > 260 µM (inactive)

## Cc1ccc(S(=O)(=O)Nc2cc(C(=O)Nc3cc(C)cc(C)c3)ccc2Cl)cc1
[7]
  IC50: > 47.1 µM (inactive)
[8]
  EC50: > 53 µM (inactive)

## N#Cc1ccsc1NC(=O)CN1CCN(S(=O)(=O)c2ccc3ccccc3c2)CC1
[3]
  EC50: > 260 µM (inactive)

## COc1ccnc(N2CCN(c3ccccc3)CC2)c1C#N
[13]
  EC50: > 38 µM (not active)
[9]
  AC50: 1.27 µM (active)
[14]
  EC50: > 160 µM (inactive)

## CN(C)c1c([N+](=O)[O-])cc2[nH]c(O)nc2c1[N+](=O)[O-]
[6]
  CC50: 24.7 µM (active)

## NC(=O)c1ccc2nc(-c3ccccc3)c(-c3ccccc3)nc2c1
[7]
  IC50: > 47.1 µM (inactive)
[8]
  EC50: > 53 µM (inactive)

## Cc1cc(C)n2nc(N)c(N=Nc3cccc(Cl)c3)c2n1
[3]
  EC50: > 260 µM (inactive)

## CCOC(=O)c1c(-c2cccc(Cl)c2)n[nH]c1N1C(=O)Nc2ccccc2N1O
[7]
  IC50: > 47.1 µM (inactive)
[8]
  EC50: > 53 µM (inactive)

## N#C/C(=C(/O)COc1ccc(Cl)cc1)c1nc2ccccc2s1
[7]
  IC50: < 0.368 µM (active)
[13]
  EC50: 0.191 µM (active)
[8]
  EC50: > 53 µM (inactive)
[14]
  EC50: 93.5 µM (active)

## Cc1cccc(/C=N/n2c(S)nnc2-c2ccccn2)c1
[9]
  AC50: 67.5 µM (active)

## CCOC(=O)Cn1c2c(c(-c3ccccc3OC)cc1=O)CCCC2
[7]
  IC50: > 47.1 µM (inactive)
[8]
  EC50: > 53 µM (inactive)

## O=C(Cn1c(=O)sc2ccccc21)Nc1nc2c(s1)CCCC2
[6]
  CC50: > 50 µM (active)

## CC(C)c1ccc(/C=C2\C(=N)N3N=C(CC(=O)N4CCCCC4)SC3=NC2=O)cc1
[9]
  AC50: 5.61 µM (active)

## Nc1cc(=O)[nH]n1C1CCN(c2ccccc2)CC1
[9]
  AC50: 2.61 µM (active)

## CN(CCOc1ccc(CC2SC(=O)NC2=O)cc1)c1ccccn1 (stereo not given) [ROSIGLITAZONE MALEATE]
[7]
  IC50: > 47.1 µM (inactive)
[8]
  EC50: > 53 µM (inactive)

## O=S(=O)(NCC(c1ccco1)N1CCc2ccccc21)c1ccccc1 (stereo not given)
[9]
  AC50: 2.49 µM (active)

## CCCCNC(=O)c1cn(CC)c2ccc(S(=O)(=O)N3CCCCCC3)cc2c1=O
[7]
  IC50: > 47.1 µM (inactive)
[8]
  EC50: > 53 µM (inactive)
